target: T1, P2X7 receptor (Homo sapiens, UniProt Q99572); test: P2X7 calcium mobilization assay, high throughput, antagonist activity (Example 4A); type: cell-based; details: fluorescence response of cells exposed to 80 μM 2′(3′)-O-(4-benzoyl-benzoyl)adenosine 5′-triphosphate; Example 4A; read-out: IC50
T1 construct: host or cells: SH-SY5Y
T1 sequence (Q99572 1-595): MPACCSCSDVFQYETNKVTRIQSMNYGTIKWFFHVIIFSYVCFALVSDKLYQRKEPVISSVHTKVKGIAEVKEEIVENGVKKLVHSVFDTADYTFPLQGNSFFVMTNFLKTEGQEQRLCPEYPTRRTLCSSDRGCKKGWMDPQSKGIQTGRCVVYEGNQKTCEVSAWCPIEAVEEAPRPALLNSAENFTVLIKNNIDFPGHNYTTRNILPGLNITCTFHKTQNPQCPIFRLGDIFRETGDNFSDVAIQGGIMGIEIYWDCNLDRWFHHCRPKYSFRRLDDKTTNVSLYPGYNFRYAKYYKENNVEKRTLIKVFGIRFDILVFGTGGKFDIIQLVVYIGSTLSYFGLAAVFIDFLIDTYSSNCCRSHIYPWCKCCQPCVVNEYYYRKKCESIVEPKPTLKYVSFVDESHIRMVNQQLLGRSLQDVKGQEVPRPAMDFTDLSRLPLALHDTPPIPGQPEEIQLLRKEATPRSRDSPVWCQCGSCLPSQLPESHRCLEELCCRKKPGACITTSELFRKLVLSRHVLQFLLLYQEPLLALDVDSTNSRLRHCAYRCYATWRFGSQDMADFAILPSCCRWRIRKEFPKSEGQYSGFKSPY
Summary of the method: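 Cells plated at 100,000/well the day before were dye-loaded for 1 h, then incubated 1 h at room temperature with test compound before agonist-triggered calcium mobilization was read on FLIPR Tetra. Maximum RFU was corrected by subtracting the no-agonist control and related to the agonist-control response.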

| IC50 [nM] | SMILES |
| --- | --- |
| < 2000 | O=C(CC12CC3CC(CC(C3)C1)C2)Nc1cccc2nc(C(=O)N3CCCC3)cn12 [Compound 358, 2-adamantan-1-yl-N-[2-(pyrrolidin-1-ylcarbonyl)imidazo [1,2-a]pyridin-5-yl]acetamide] |
| < 2000 | CCCCN(C)C(=O)c1cn2c(NC(=O)CC34CC5CC(CC(C5)C3)C4)cccc2n1 [Compound 360, 5-[(adamantan-1-ylacetyl)amino]-N-butyl-N-methylimidazo[1,2-a]pyridine-2-carboxamide] |
| < 2000 | CCCN(C)C(=O)c1cn2c(NC(=O)CC34CC5CC(CC(C5)C3)C4)cccc2n1 [Compound 361, 5-[(adamantan-1-ylacetyl)amino]-N-methyl-N-propylimidazo[1,2-a]pyridine-2-carboxamide] |
| < 2000 | CC1CCN(C(=O)c2cn3c(NC(=O)CC45CC6CC(CC(C6)C4)C5)cccc3n2)CC1 [Compound 363, 2-adamantan-1-yl-N-{2-[(4-methylpiperidin-1-yl)carbonyl]imidazo[1,2-a]pyridin-5-yl}acetamide] |
| < 2000 | O=C(CC12CC3CC(CC(C3)C1)C2)Nc1cccc2nc(C(=O)N3CCOCC3)cn12 [Compound 364, 2-adamantan-1-yl-N-[2-(morpholin-4-ylcarbonyl)imidazo[1,2-a]pyridin-5-yl]acetamide] |
| < 2000 | CCN(CC)C(=O)c1cn2c(NC(=O)CC34CC5CC(CC(C5)C3)C4)cccc2n1 [Compound 365, 5-[(adamantan-1-ylacetyl)amino]-N,N-diethylimidazo[1,2-a]pyridine-2-carboxamide] |
| < 2000 | COCCN(C)C(=O)c1cn2c(NC(=O)CC34CC5CC(CC(C5)C3)C4)cccc2n1 [Compound 366, 5-[(adamantan-1-ylacetyl)amino]-N-(2-methoxyethyl)-N-methylimidazo[1,2-a]pyridine-2-carboxamide] |
| < 2000 | CC(C)CN(C)C(=O)c1cn2c(NC(=O)CC34CC5CC(CC(C5)C3)C4)cccc2n1 [Compound 367, 5-[(adamantan-1-ylacetyl)amino]-N-isobutyl-N-methylimidazo[1,2-a]pyridine-2-carboxamide] |
| < 2000 | CN(CC1OCCO1)C(=O)c1cn2c(NC(=O)CC34CC5CC(CC(C5)C3)C4)cccc2n1 [Compound 368, 5-[(adamantan-l-ylacetyl)amino]-N-(1,3-dioxolan-2-ylmethyl)-N-methylimidazo[1,2-a]pyridine-2-carboxamide] |
| < 2000 | CCN(C)C(=O)c1cn2c(NC(=O)CC34CC5CC(CC(C5)C3)C4)cccc2n1 [Compound 369, 5-[(adamantan-1-ylacetyl)amino]-N-ethyl-N-methylimidazo[1,2-a]pyridine-2-carboxamide] |
| < 2000 | CN(C)C(=O)c1cn2c(NC(=O)CC34CC5CC(CC(C5)C3)C4)cccc2n1 [Compound 370, 5-[(adamantan-1-ylacetyl)amino]-N,N-dimethylimidazo[1,2-a]pyridine-2-carboxamide] |
| < 2000 | COC[C@@H]1CCCN1C(=O)c1cn2c(NC(=O)CC34CC5CC(CC(C5)C3)C4)cccc2n1 [Compound 371, 2-adamantan-1-yl-N-(2-{[(2S)-2-(methoxymethyl)pyrrolidin-1-yl]carbonyl}imidazo [1,2-a]pyridin-5-yl)acetamide] |
| < 2000 | CCCCN(CC)C(=O)c1cn2c(NC(=O)CC34CC5CC(CC(C5)C3)C4)cccc2n1 [Compound 373, 5-[(adamantan-1-ylacetyl)amino]-N-butyl-N-ethylimidazo[1,2-a]pyridine-2-carboxamide] |
| < 2000 | CCCN(CCC)C(=O)c1cn2c(NC(=O)CC34CC5CC(CC(C5)C3)C4)cccc2n1 [Compound 374, 5-[(adamantan-1-ylacetyl)amino]-N,N-dipropylimidazo[1,2-a]pyridine-2-carboxamide] |

The remaining lines, values behind:

| SMILES | IC50 [nM] |
| --- | --- |
| CCOC(=O)C(C)c1cn2c(C(=O)NCC34CC5CC(CC(C5)C3)C4)cccc2n1 (stereo not drawn) [Compound 338, ethyl 2-{5-[(adamantan-1-ylmethyl)carbamoyl]imidazo[1,2-a]pyridin-2-yl}propanoate] | < 2000 |
| Cc1cc(-c2cn3c(C(=O)NCC45CC6CC(CC(C6)C4)C5)cccc3n2)n(CCO)n1 [Compound 339, N-(adamantan-1-ylmethyl)-2-[1-(2-hydroxyethyl)-3-methyl-1H-pyrazol-5-yl]imidazo[1,2-a]pyridine-5-carboxamide] | < 2000 |
| Cc1cc(-c2cn3c(C(=O)NCC45CC6CC(CC(C6)C4)C5)cccc3n2)nn1CCO [Compound 340, N-(adamantan-1-ylmethyl)-2-[1-(2-hydroxyethyl)-5-methyl-1H-pyrazol-3-yl]imidazo[1,2-a]pyridine-5-carboxamide] | < 2000 |
| CCOC(=O)CN(C)Cc1cn2c(C(=O)NCC34CC5CC(CC(C5)C3)C4)cccc2n1 [Compound 341, ethyl N-({5-[(adamantan-1-ylmethyl)carbamoyl]imidazo[1,2-a]pyridin-2-yl}methyl)-N-methylglycinate] | < 2000 |
| O=C(O)CCSCc1cn2c(C(=O)NCC34CC5CC(CC(C5)C3)C4)cccc2n1 [Compound 342, 3-[({5-[(adamantan-1-ylmethyl)carbamoyl]imidazo[1,2-a]pyridin-2-yl}methyl)thio] propanoic acid] | < 2000 |
| O=C(NCCC1CC2CCC1C2)c1cccc2nc(CN3CCOCC3)cn12 (stereo not drawn) [Compound 344, N-(2-bicyclo[2.2.1]hept-2-ylethyl)-2-(morpholin-4-ylmethyl)imidazo[1,2-a]pyridine-5-carboxamide] | < 2000 |
| O=C(O)c1cccc(-c2cn3c(C(=O)NCC45CC6CC(CC(C6)C4)C5)cccc3n2)c1 [Compound 345, 3-{5-[(adamantan-1-ylmethyl)carbamoyl]imidazo[1,2-a]pyridin-2-yl} benzoic acid] | < 2000 |
| O=C(O)CCS(=O)(=O)Cc1cn2c(C(=O)NCC34CC5CC(CC(C5)C3)C4)cccc2n1 [Compound 346, 3-[({5-[(adamantan-1-ylmethyl)carbamoyl]imidazo[1,2-a]pyridin-2-yl}methyl)sulfonyl] propanoic acid] | < 2000 |
| Cc1cc(-c2cn3c(C(=O)NCC45CC6CC(CC(C6)C4)C5)cccc3n2)n(CC(=O)O)n1 [Compound 347, (5-{5-[(adamantan-1-ylmethyl)carbamoyl]imidazo[1,2-a]pyridin-2-yl}-3-methyl-1H-pyrazol-1-yl)acetic acid] | < 2000 |
| CN(CC(=O)O)Cc1cn2c(C(=O)NCC34CC5CC(CC(C5)C3)C4)cccc2n1 [Compound 348, N-({5-[(adamantan-1-ylmethyl)carbamoyl]imidazo[1,2-a]pyridin-2-yl}methyl)-N-methylglycine] | < 2000 |
| O=C(O)c1ccc(=O)n(Cc2cn3c(C(=O)NCC45CC6CC(CC(C6)C4)C5)cccc3n2)c1 [Compound 350, 1-({5-[(adamantan-1-ylmethyl)carbamoyl]imidazo[1,2-a]pyridin-2-yl}methyl)-6-oxo-1,6-dihydropyridine-3-carboxylic acid] | < 2000 |
| O=C(O)c1cccn(Cc2cn3c(C(=O)NCC45CC6CC(CC(C6)C4)C5)cccc3n2)c1=O [Compound 351, 1-({5-[(adamantan-1-ylmethyl)carbamoyl]imidazo[1,2-a]pyridin-2-yl}methyl)-2-oxo-1,2-dihydropyridine-3-carboxylic acid] | < 2000 |
| O=C(NCC12CC3CC(CC(C3)C1)C2)c1cccc2nc(CN3CCSCC3)cn12 [Compound 352, N-(adamantan-1-ylmethyl)-2-(thiomorpholin-4-ylmethyl)imidazo[1,2-a]pyridine-5-carboxamide] | < 2000 |
| CC(=O)CCc1cn2c(C(=O)NCC34CC5CC(CC(C5)C3)C4)cccc2n1 [Compound 353, N-(adamantan-1-ylmethyl)-2-(3-oxobutyl)imidazo[l ,2-a]pyridine-5-carboxamide] | < 2000 |
| C/C(CCc1cn2c(C(=O)NCC34CC5CC(CC(C5)C3)C4)cccc2n1)=N\O [Compound 354, N-(adamantan-1-ylmethyl)-2-[(3E)-3-(hydroxyimino)butyl] imidazo[1,2-a]pyridine-5-carboxamide] | < 2000 |
| O=C(O)c1ccn(Cc2cn3c(C(=O)NCC45CC6CC(CC(C6)C4)C5)cccc3n2)c(=O)c1 [Compound 355, 1-({5-[(adamantan-1-ylmethyl)carbamoyl]imidazo[1,2-a]pyridin-2-yl}methyl)-2-oxo-1,2-dihydropyridine-4-carboxylic acid] | < 2000 |
| CCOC(=O)N1CCN(C(=O)c2cn3c(NC(=O)CC45CC6CC(CC(C6)C4)C5)cccc3n2)CC1 [Compound 356, ethyl 4-({5-[(adamantan-1-ylacetyl)amino]imidazo [1,2-a]pyridin-2-yl}carbonyl) piperazine-1-carboxylate] | < 2000 |
| O=C(CC12CC3CC(CC(C3)C1)C2)Nc1cccc2nc(C(=O)N3CCCCC3)cn12 [Compound 357, 2-adamantan-1-yl-N-[2-(piperidin-1-ylcarbonyl)imidazo [1,2-a]pyridin-5-yl]acetamide] | < 2000 |
| O=C(CC12CC3CC(CC(C3)C1)C2)Nc1cccc2nc(C(=O)N3CCSCC3)cn12 [Compound 362, 2-adamantan-1-yl-N-[2-(thiomorpholin-4-ylcarbonyl)imidazo[1,2-a]pyridin-5-yl]acetamide] | < 2000 |

From US8431593B2, “Heteroaryl amide derivatives” (H. Lundbeck A/S, priority 2006, dated 2013)
